These results are taken from PubChem BioAssay AID330 (DTP/NCI, 2004).

The structures appear in SMILES notation. “And” between values parts separate entries of the source, which are not always exact repeats. Equal entries are not always repeated. Inconclusive results and toxic doses are left out.

The test system of this assay is P388 leukemia ip, CD2F1 mice, survival T/C. The assay is described as follows: NCI In Vivo Anticancer Drug Screen. Data for tumor model P388 Leukemia (intraperitoneal) in CD2F1 (CDF1) mice. To be noted: endpoint: median survival time, higher = longer survival. In a few lines:
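Mice carrying the transplanted tumor received test compound or vehicle. Survival was recorded in each group, and the value is the treated-group measurement divided by that of the vehicle-treated control group.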

The mark [1] stands for this setting: dose: 100.0 mg/kg/injection, schedule: Q01DX009 (ip), vehicle: saline.
The mark [2] stands for this setting: dose: 100.0 mg/kg/injection, schedule: Q04DX003 (ip), vehicle: saline.
Setting [3] is: dose: 200.0 mg/kg/injection, schedule: Q01DX009 (ip), vehicle: saline.
The mark [4] stands for this setting: dose: 200.0 mg/kg/injection, schedule: Q04DX003 (ip), vehicle: saline.
Setting [5] is: dose: 400.0 mg/kg/injection, schedule: Q04DX003 (ip), vehicle: saline.
[6] abbreviates: dose: 50.0 mg/kg/injection, schedule: Q01DX009 (ip), vehicle: saline with Tween-80.
Setting [7] is: dose: 100.0 mg/kg/injection, schedule: Q01DX009 (ip), vehicle: saline with Tween-80.
[8] abbreviates: dose: 50.0 mg/kg/injection, schedule: Q01DX009 (ip), vehicle: saline.
[9] abbreviates: dose: 60.0 mg/kg/injection, schedule: Q01DX005 (ip), vehicle: saline with Tween-80.
The mark [10] stands for this setting: dose: 120.0 mg/kg/injection, schedule: Q01DX005 (ip), vehicle: saline with Tween-80.
The mark [11] stands for this setting: dose: 240.0 mg/kg/injection, schedule: Q01DX005 (ip), vehicle: saline with Tween-80.
The mark [12] stands for this setting: dose: 50.0 mg/kg/injection, schedule: Q01DX005 (ip), vehicle: Klucel (hydroxypropylcellulose) (HPC).
The mark [13] stands for this setting: dose: 100.0 mg/kg/injection, schedule: Q01DX005 (ip), vehicle: Klucel (hydroxypropylcellulose) (HPC).
Where [14] appears, read: dose: 200.0 mg/kg/injection, schedule: Q01DX005 (ip), vehicle: Klucel (hydroxypropylcellulose) (HPC).
Setting [15] is: dose: 6.25 mg/kg/injection, schedule: Q01DX009 (ip), vehicle: water.
The mark [16] stands for this setting: dose: 12.5 mg/kg/injection, schedule: Q01DX009 (ip), vehicle: water.
The mark [17] stands for this setting: dose: 25.0 mg/kg/injection, schedule: Q01DX009 (ip), vehicle: water.
The mark [18] stands for this setting: dose: 50.0 mg/kg/injection, schedule: Q01DX009 (ip), vehicle: water.
[19] abbreviates: dose: 200.0 mg/kg/injection, schedule: Q01DX009 (ip), vehicle: saline with Tween-80.

With `O=S(=O)(O)c1cncc(S(=O)(=O)O)n1`, the T/C was 110 % of control under setting [1]; 100 % of control under setting [2]; 105 % of control under setting [3]; 104 % of control under setting [4]; 100 % of control (dose: 400.0 mg/kg/injection, schedule: Q01DX009 (ip), vehicle: saline); 100 % of control under setting [5].
Take `COC(=O)C(C)c1cc2ccccc2[nH]1` (stereo not drawn): the T/C reads like this: (dose: 25.0 mg/kg/injection, schedule: Q01DX009 (ip), vehicle: saline with Tween-80) 100 % of control; under setting [6], 99 % of control; under setting [7], 113 % of control.
Turning to `CCOP(=O)(Cc1ccc(-c2nc3ccccc3o2)cc1)OCC`, the T/C by setting is: under setting [8], 103 % of control; under setting [1], 100 % of control; under setting [3], 99 % of control.
On to `COC(=O)C12OCC34C(CC5C(C)=C(O)C(=O)CC5(C)C3C(O)C1O)OC(=O)C(OC(=O)N(C)[Si](C)(C)C(C)(C)C)C24` (stereo not drawn), for which the T/C was 101 % of control (dose: 125.0 micrograms/kg/injection, schedule: Q01DX005 (ip), vehicle: Klucel (hydroxypropylcellulose) (HPC)); 95 % of control (dose: 250.0 micrograms/kg/injection, schedule: Q01DX005 (ip), vehicle: Klucel (hydroxypropylcellulose) (HPC)); 96 % of control (dose: 500.0 micrograms/kg/injection, schedule: Q01DX005 (ip), vehicle: Klucel (hydroxypropylcellulose) (HPC)); 95 % of control (dose: 1000.0 micrograms/kg/injection, schedule: Q01DX005 (ip), vehicle: Klucel (hydroxypropylcellulose) (HPC)).
For `Cc1c2ccccc2c(C)c2c1cc(C(=O)O)c1ccccc12`, the T/C runs as follows: (dose: 25.0 mg/kg/injection, schedule: Q01DX005 (ip), vehicle: saline with Tween-80) 113 % of control; (dose: 50.0 mg/kg/injection, schedule: Q01DX005 (ip), vehicle: saline with Tween-80) 113 % of control and 116 % of control; (dose: 200.0 mg/kg/injection, schedule: Q01DX005 (ip), vehicle: saline with Tween-80) 124 % of control.
On to `CCC(=O)OCc1c(Cl)nc2n1CCS2`, for which the T/C runs as follows: (dose: 100.0 mg/kg/injection, schedule: Q01DX001 (ip), vehicle: Klucel (hydroxypropylcellulose) (HPC)) 100 % of control; (dose: 200.0 mg/kg/injection, schedule: Q01DX001 (ip), vehicle: Klucel (hydroxypropylcellulose) (HPC)) 100 % of control.
Consider `CCCCCC(O)CC(O)CC(=O)CCCC(=O)CC(O)CC(=O)CCCCCC(O)CC(O)CC(=O)CCCC(=O)CC(O)CC(=O)CCCC(C)=O` (stereo not drawn) (tested in a mixture with another compound), for which the T/C reads like this: (dose: 0.62 mg/kg/injection, schedule: Q01DX005 (ip), vehicle: DMSO) 91 % of control; (dose: 1.25 mg/kg/injection, schedule: Q01DX005 (ip), vehicle: DMSO) 91 % of control; (dose: 2.5 mg/kg/injection, schedule: Q01DX005 (ip), vehicle: DMSO) 90 % of control; (dose: 5.0 mg/kg/injection, schedule: Q01DX005 (ip), vehicle: DMSO) 92 % of control; (dose: 10.0 mg/kg/injection, schedule: Q01DX005 (ip), vehicle: DMSO) 100 % of control; (dose: 20.0 mg/kg/injection, schedule: Q01DX005 (ip), vehicle: DMSO) 93 % of control.
As for `CC(=Nc1c(Cl)c(Cl)c2c(c1Cl)C(=O)c1cc(Cl)ccc1-2)NO`, the T/C is 97 % of control under setting [9], 104 % of control under setting [10] and 95 % of control under setting [11].
Turning to `O=C(O)CNc1ccccc1Br`, the T/C was 105 % of control under setting [12], 97 % of control under setting [13] and 96 % of control under setting [14].
For `O=C1OC(=O)c2c(Br)c(Br)c(Br)c(Br)c21`, the T/C was 100 % of control under setting [2], 100 % of control under setting [4] and 104 % of control under setting [5].
As for `[Cl][Pt+2][Cl].[NH-]CC(=O)O.[NH-]CC(=O)O`, the T/C reads like this: (dose: 3.13 mg/kg/injection, schedule: Q01DX009 (ip), vehicle: water) 100 % of control and 121 % of control; under setting [15], 113 % of control; under setting [16], 123 % of control and 124 % of control; under setting [17], 117 % of control; under setting [18], 118 % of control and 121 % of control.
In the case of `Cn1c(N)c(C(=O)/C=C/c2ccccc2)c(=O)[nH]c1=O`, the T/C was 95 % of control under setting [12], 88 % of control under setting [13] and 88 % of control under setting [14].
On to `O=c1[nH]nc(-c2ccc3c(c2)OCO3)o1`, for which the T/C (dose: 32.5 mg/kg/injection, schedule: Q01DX009 (ip), vehicle: Klucel (hydroxypropylcellulose) (HPC)) was 105 % of control; the T/C (dose: 65.0 mg/kg/injection, schedule: Q01DX009 (ip), vehicle: Klucel (hydroxypropylcellulose) (HPC)) was 95 % of control; the T/C (dose: 130.0 mg/kg/injection, schedule: Q01DX009 (ip), vehicle: Klucel (hydroxypropylcellulose) (HPC)) is 95 % of control.
`Cc1cc2c(c(C#N)c1C)NC=NC2C` (stereo not drawn): the T/C runs as follows: under setting [6], 94 % of control; under setting [7], 105 % of control.
On to `CCCSCCNC(=O)C1(O)C(O)C2(CC)C=CCN3CCC4(c5cc(C6(OC(C)=O)CC7C=C(CC)CN(CCc8c6[nH]c6ccccc86)C7)c(OC)cc5N(C)C14)C32` (stereo not drawn), for which the T/C (dose: 0.5 mg/kg/injection, schedule: Q01DX001 (ip), vehicle: water) is 107 % of control; the T/C (dose: 2.0 mg/kg/injection, schedule: Q01DX001 (ip), vehicle: water) is 111 % of control; the T/C (dose: 4.0 mg/kg/injection, schedule: Q01DX001 (ip), vehicle: water) was 159 % of control; the T/C (dose: 8.0 mg/kg/injection, schedule: Q01DX001 (ip), vehicle: water) was 161 % of control; the T/C (dose: 16.0 mg/kg/injection, schedule: Q01DX001 (ip), vehicle: water) was 158 % of control and 198 % of control.
As for `CC1OC(OCc2ccc3c(c2)C(=O)c2ccccc2C3=O)CC(N)C1O` (stereo not drawn), the T/C is, setting by setting: (dose: 1.56 mg/kg/injection, schedule: Q01DX009 (ip), vehicle: water) 105 % of control; (dose: 3.12 mg/kg/injection, schedule: Q01DX009 (ip), vehicle: water) 104 % of control; under setting [15], 100 % of control; under setting [16], 100 % of control; under setting [17], 103 % of control; under setting [18], 92 % of control.
With `CCCCS/C=C1\CCc2cc(OC)ccc2C12CC1=C(CCc3cc(OC)ccc31)C(SCCCC)C2` (stereo not drawn), the T/C was 94 % of control under setting [6], 88 % of control under setting [7] and 87 % of control under setting [19].
As for `C[C@H]1/C(=C/C(=O)OCCN(C)C)CC[C@H]2[C@H]1C(=O)C[C@H]1C(C)(C)[C@@H](O)CC[C@]21C`, the T/C is 101 % of control (dose: 3.12 mg/kg/injection, schedule: Q01DX009 (ip), vehicle: saline); 96 % of control (dose: 6.25 mg/kg/injection, schedule: Q01DX009 (ip), vehicle: saline); 100 % of control (dose: 12.5 mg/kg/injection, schedule: Q01DX009 (ip), vehicle: saline); 100 % of control (dose: 25.0 mg/kg/injection, schedule: Q01DX009 (ip), vehicle: saline).
As for `COC(=O)N1c2ccccc2C(c2ccccc2)=NC1(C)C#N` (stereo not drawn), the T/C under setting [9] was 98 % of control, the T/C under setting [10] is 99 % of control and the T/C under setting [11] was 100 % of control.
On to `COc1cccc(C(Nc2nncs2)Nc2nncs2)c1OC`, for which the T/C is 87 % of control under setting [9], 91 % of control under setting [10] and 100 % of control under setting [11].
For `CC1=CC=c2ccc3c(c2[N-]1)[N-]C(C)=CC=3.CC1=CC=c2ccc3c(c2[N-]1)[N-]C(C)=CC=3.O=[N+]([O-])O.[Cu+]`, the T/C reads like this: (dose: 6.25 mg/kg/injection, schedule: Q04DX002 (ip), vehicle: suspension in saline) 101 % of control; (dose: 12.5 mg/kg/injection, schedule: Q04DX002 (ip), vehicle: suspension in saline) 103 % of control.
For the compound `S=C(Nc1ccccn1)c1ccccn1`, the T/C under setting [6] is 95 % of control; the T/C under setting [8] is 105 % of control; the T/C under setting [7] was 88 % of control; the T/C under setting [1] is 103 % of control; the T/C under setting [3] was 103 % of control.
Turning to `CCCCCCCCCCCOCC(=O)OC`, the T/C reads like this: under setting [6], 99 % of control; under setting [7], 101 % of control; under setting [19], 100 % of control.
